Measurements published in patent EP0282456A2, “Mylbemycin derivatives to combat parasites on animals” (CIBA-GEIGY AG, priority 1987, dated 1988).

Key:
[1] = test system: Li-Larven von Lucilia sericata; experiment: Activity against L1 larvae of Lucilia sericata (mortality in larval culture medium); details: 100 ppm active substance in larval medium; about 30 L1 larvae; mortality after 4 days
Procedure: 1 ml einer wässrigen Suspension der zu prüfenden Aktivsubstanz werden so mit 3 ml eines speziellen Larvenzuchtmediums bei ca. 50° C vermischt, dass ein Homogenisat von wahlweise 250 ppm oder 100 ppm Wirkstoffgehalt entsteht. In jede Reagenzglas-Probe werden ca. 30 Lucilia-Larven (L1) eingesetzt. Nach 4 Taben wird die Mortalitätsrate bestimmt. Verbindungen der Formel I aus den Tabellen, wie z.B. die Verbindungen H4 und H5 erzielten mit 100 ppm eine Wirkung von 100%.

[2] = test system: Haemonchus contortus und Trichostrongylus colubriformis; experiment: Test on sheep infected with nematodes (worm egg count in faeces); assay type: in vivo, Schaf; details: single dose 0,2 mg/kg by stomach tube or intraruminal injection, compared with untreated infected controls
Procedure: Der Wirkstoff wird als Suspension formuliert mit einer Magensonde oder durch Injektion in den Pansen eines Schafes gegeben, das mit Haemonchus contortus und Trychostrongylus colubriformis künstlich infiziert worden ist. Pro Dosis werden 1 bis 3 Tiere verwendet. Jedes Schaf wird nur einmal mit einer einzigen Dosis behandelt, und zwar wahlweise mit 0,5 mg oder 0,2 mg/kg Körpergewicht. Die Evaluierung erfolgt durch Vergleich der Anzahl der vor und nach Behandlung im Kot der Schafe ausgeschiedenen Wurmeier. Gleichzeitig und gleichartig infizierte aber unbehandelte Schafe dienen als Kontrolle.

[3] = test system: Dermanyssus gallinae; experiment: Miticidal activity against Dermanyssus gallinae; details: 100 ppm test solution; about 200 mites; observed for three days
Procedure: 2 bis 3 ml einer Testlösung (100, 10, 1 und 0,1 ppm Aktivsubstanz) werden in einen nach oben offenen Glasbehälter gegeben und ca. 200 Milben in unterschiedlichen Entwicklungsstadien in diesen Behälter eingesetzt. Der Glasbehälter wird mit einem Wattebausch verschlossen und 10 Minuten gleichmässig, bis zur vollständigen Benetzung der Milben geschüttelt. Danach wird der Behälter umgekehrt hingestellt, bis die überschüssige Testlösung von der Watte aufgesogen ist. Der Behälter wird erneut gekehrt und die behandelten Milben zur Evaluierung der Wirksamkeit der Testsubstanzen drei Tage unter Laborbedingungen beobachtet, wobei die Mortalität als Massstab für Wirksamkeit herangezogen wird. Verbindungen aus den Tabellen, wie z.B. die Verbindungen H4 und H5 zeigen bei 100 ppm eine Wirkung von 1000/0.

| Substance | Wirkung (Mortalitätsrate) [1] | Nematodenbefall (Reduktion der Wurmeier im Kot) [2] | Wirkung (Mortalität) [3] |
| --- | --- | --- | --- |
| 13-Vinyl-milbemycin A4 [H4] | 100% | keinen Nematodenbefall | 1000/0 |
| 13ß-Vinyl-milbemycin A4 [H5] | 100% | keinen Nematodenbefall | 1000/0 |
